Data from publication PMC5438822, “Pharmacokinetics and safety of carfilzomib in patients with relapsed multiple myeloma and end-stage renal disease (ESRD): an open-label, single-arm, phase I study” (Cancer Chemotherapy and Pharmacology, 2017).
Like-named read-outs stand apart in the source and are kept apart here.

Tests used:
[1] = Plasma pharmacokinetics of carfilzomib and its major metabolites after 30-min IV infusion, normal renal function vs ESRD; assay type: in vivo, human; conditions: for AUC0−inf Geo mean ratio (90% CI), ESRD vs normal renal function / AUC0−last Geo mean ratio (90% CI), ESRD vs normal renal function: ANOVA of ln-transformed data, ESRD test, normal reference
Description: (§1) This was a phase I, multicenter (13 sites in US, Canada, and Australia), open-label, nonrandomized, comparative PK study of carfilzomib in patients with multiple myeloma and normal renal function or ESRD on hemodialysis (NCT01949532). The primary objective was to assess the influence of ESRD on AUC, from time 0 to the last concentration measured (AUC0−last) and from time 0 extrapolated to infinity (AUC0−inf) of carfilzomib 56 mg/m^2 at cycle 2 day 1 in patients with relapsed multiple myeloma. Secondary objectives were to compare between patient cohorts additional PK parameters of carfilzomib at cycle 2 day 1, including C max, time to maximum concentration (t max), clearance, terminal half-life (t 1/2), volume of distribution at steady state, and mean residence time; compare between patient cohorts PK parameters of carfilzomib 27 mg/m^2 at cycle 1 day 16; evaluate PK parameters for carfilzomib’s major metabolites (PR-389/M14, PR-413/M15, and PR-519/M16) to help characterize metabolism and elimination profile of carfilzomib; and evaluate the safety and tolerability of carfilzomib. Exploratory objectives included evaluation of ORR (defined as PR or better) and clinical benefit rate [CBR; defined as ORR + minimal response (MR)], and estimation of duration of response (DOR) and PFS.
(§2) Patients received IV carfilzomib (as a 30-min infusion) in 28-day cycles (Fig. 1). All received carfilzomib 20 mg/m^2 on days 1 and 2 of cycle 1 and escalated to 27 mg/m^2 on day 8, 9, 15, and 16 of cycle 1. If tolerated, carfilzomib dose was increased to 56 mg/m^2 starting on day 1 of cycle 2 and continued on the same schedule (day 1, 2, 8, 9, 15, and 16 of each cycle). Oral or IV dexamethasone 8 mg/day was given on the same days as carfilzomib during cycles 1 and 2 but was optional in cycles 3 and beyond. IV hydration was given immediately prior to and following carfilzomib dosing during cycle 1 and at the investigator’s discretion in cycle 2 and higher; hydration consisted of 250 to 500 mL IV normal saline or other appropriate IV fluid.
(§3) Blood samples were collected for PK assessments for carfilzomib and its major metabolites (metabolites PR-389/M14, PR-413/M15, and PR-519/M16) (Fig. 1). Samples were collected at the following timepoints on cycle 1 day 16 (27 mg/m^2 dose) and cycle 2 day 1 (56 mg/m^2 dose) or on subsequent infusion days when the intended dose levels were administered: before infusion; 15 min after start of infusion; within 2 min before the end of infusion; and at 5, 15, and 30 min (±2 min for all timepoints ≤30 min), and 1, 2, and 4 h (±5 min for all timepoints >30 min) after the end of the infusion. Safety was assessed throughout the study and included the monitoring of AEs, clinical laboratory evaluations, electrocardiograms, and vital signs. Each evaluable patient’s response to treatment or progression over the course of the study was evaluated by the investigator according to the International Myeloma Working Group, International Uniform Response Criteria for Multiple Myeloma and European Group for Blood and Marrow Transplantation at day 1 of each cycle.
Descriptive statistics were provided for selected demographics, safety, and PK data, with all statistical summaries and analyses performed in SAS^Ⓡ version 9.1 or higher (SAS Institute Inc., Cary, NC). The primary PK analyses and other PK parameters were performed using the PK-evaluable population. Plasma PK parameters of carfilzomib and metabolites were computed in Phoenix WinNonlin^Ⓡ Enterprise version 5.2 or higher. To assess the effect of ESRD relative to normal renal function on PK parameters (AUC0−last and AUC0−inf), an analysis of variance (ANOVA) of the ln-transformed plasma PK parameters was performed, with renal impairment as a fixed effect. […]

[2] = tested on: patients with relapsed multiple myeloma; assay: Best overall response as determined by investigator (IMWG / EBMT criteria), DOR and PFS; assay type: in vivo, human; conditions: for Best overall response: Minimal response / Best overall response: Complete response / Best overall response: Not evaluable / Best overall response: Partial response / Best overall response: Progressive disease / Best overall response: Stable disease / Best overall response: Stringent complete response / Best overall response: Very good partial response / Clinical benefit rate (95% CI), minimal response or better / Overall response rate (95% CI), partial response or better: response-evaluable, carfilzomib 20/27/56 mg/m^2 IV; for Best overall response: Minimal response: EBMT criteria
Description: as §1, §2, §3
(§4) Safety was assessed for patients who received ≥1 dose of carfilzomib. AEs were graded using the National Cancer Institute Common Terminology Criteria for Adverse Events version 4.03 and mapped to preferred term and system organ class using the Medical Dictionary for Regulatory Activities (MedDRA). ORR defined as the proportion of patients for whom the best overall response was stringent complete response, complete response, very good PR, or PR, along with the associated 95% exact binomial CI (Clopper–Pearson method) was determined. CBR, defined as the proportion of patients with the best overall response of MR or better, was likewise determined along with the 95% exact binomial CI.

[3] = tested on: patients with relapsed multiple myeloma; assay: Safety: adverse events (NCI CTCAE v4.03), discontinuations, deaths; assay type: in vivo, human; conditions: for treatment discontinuation due to disease progression: as of data cutoff
Description: as §2, §3, §4

[4] = cited from earlier work
Text: Carfilzomib, an epoxyketone proteasome inhibitor, is approved in the United States (US), Canada, Australia, European Union (EU), and other jurisdictions for the treatment of relapsed or refractory multiple myeloma. […] Following intravenous (IV) administration, carfilzomib is rapidly and extensively metabolized in patients with multiple myeloma or solid tumors. Similar to the metabolic profile in rats and monkeys, ...

[5] = tested on: relapsed multiple myeloma; conditions: carfilzomib 56 mg/m^2 infused for 30 min with or without dexamethasone, cited from earlier work
Description: The 50% ORR in the overall population was similar to those previously reported in trials of carfilzomib 56 mg/m^2 infused for 30 min with or without dexamethasone for relapsed multiple myeloma (50% in a phase I trial and 55% in a phase II trial). Together, the results of this study support current recommendations for carfilzomib that no starting dose adjustment is warranted for patients with baseline renal impairment including those with ESRD [8, 20].

[6] = total efficacy-evaluable population

CC(C)C[C@H](NC(=O)[C@H](CCc1ccccc1)NC(=O)CN1CCOCC1)C(=O)N[C@@H](Cc1ccccc1)C(=O)N[C@@H](CC(C)C)C(=O)[C@@]1(C)CO1 [carfilzomib]
AUC0−inf Geo mean ratio (90% CI), ESRD vs normal renal function ([1]; 27 mg/m^2): 138.09 (102.77–185.54) %
AUC0−last Geo mean ratio (90% CI), ESRD vs normal renal function ([1]; 27 mg/m^2): 139.72 (112.41–173.66) %
AUC0−inf Geo mean ratio (90% CI), ESRD vs normal renal function ([1]; 56 mg/m^2, cycle 2 day 1): 133.62 (70.93–251.73) %
AUC0−last Geo mean ratio (90% CI), ESRD vs normal renal function ([1]; 56 mg/m^2, cycle 2 day 1): 132.75 (70.60–249.63) %
change in mean AUC0−last and C max between 27 and 56 mg/m^2 ([1]; in vivo): dose-dependent increase
concentration decline in the first 15 min following the end of the infusion ([1]; in vivo): two orders of magnitude
mean terminal t 1/2 ([1]; in vivo): 24 to 72 min
time of peak concentrations after start of infusion ([1]; in vivo, iv): approximately 0.5 h
patients with a PFS of ≥6 months ([2]; ESRD): 4 of 10
Best overall response: Minimal response ([2]; ESRD, n = 10): 0 (0.0) n (%)
Best overall response: Complete response ([2]; ESRD, n = 10): 0 (0.0) n (%)
Best overall response: Not evaluable ([2]; ESRD, n = 10): 0 (0.0) n (%)
Best overall response: Partial response ([2]; ESRD, n = 10): 5 (50.0) n (%)
Best overall response: Progressive disease ([2]; ESRD, n = 10): 2 (20.0) n (%)
Best overall response: Stable disease ([2]; ESRD, n = 10): 2 (20.0) n (%)
Best overall response: Stringent complete response ([2]; ESRD, n = 10): 0 (0.0) n (%)
Best overall response: Very good partial response ([2]; ESRD, n = 10): 1 (10.0) n (%)
Clinical benefit rate (95% CI), minimal response or better ([2]; ESRD, n = 10): 60.0 (26.2–87.8) %
Overall response rate (95% CI), partial response or better ([2]; ESRD, n = 10): 60.0 (26.2–87.8) %
patients with a PFS of ≥6 months ([2]; normal renal function): 6 of 14
Best overall response: Minimal response ([2]; normal renal function, n = 14): 1 (7.1) n (%)
Best overall response: Complete response ([2]; normal renal function, n = 14): 0 (0.0) n (%)
Best overall response: Partial response ([2]; normal renal function, n = 14): 3 (21.4) n (%)
Best overall response: Progressive disease ([2]; normal renal function, n = 14): 2 (14.3) n (%)
Best overall response: Stable disease ([2]; normal renal function, n = 14): 3 (21.4) n (%)
Best overall response: Stringent complete response ([2]; normal renal function, n = 14): 0 (0.0) n (%)
Best overall response: Very good partial response ([2]; normal renal function, n = 14): 3 (21.4) n (%)
Clinical benefit rate (95% CI), minimal response or better ([2]; normal renal function, n = 14): 50.0 (23.0–77.0) %
Overall response rate (95% CI), partial response or better ([2]; normal renal function, n = 14): 42.9 (17.7–71.1) %
patients with a PFS >12 months [2, 6]: 4 patients
patients with a PFS of ≥6 months [2, 6]: Ten
Best overall response: Minimal response ([2]; total, n = 24): 1 (4.2) n (%)
Best overall response: Complete response ([2]; total, n = 24): 0 (0.0) n (%)
Best overall response: Not evaluable ([2]; total, n = 24): 2 (8.3) n (%)
Best overall response: Partial response ([2]; total, n = 24): 8 (33.3) n (%)
Best overall response: Progressive disease ([2]; total, n = 24): 4 (16.7) n (%)
Best overall response: Stable disease ([2]; total, n = 24): 5 (20.8) n (%)
Best overall response: Stringent complete response ([2]; total, n = 24): 0 (0.0) n (%)
Best overall response: Very good partial response ([2]; total, n = 24): 4 (16.7) n (%)
Clinical benefit rate (95% CI), minimal response or better ([2]; total, n = 24): 54.2 (32.8–74.4) %
Overall response rate (95% CI), partial response or better ([2]; total, n = 24): 50.0 (29.1–70.9) %
treatment discontinuation due to disease progression ([3]; ESRD): 36%
patients with treatment-related AEs that led to study discontinuation ([3]; in vivo): Four
treatment discontinuation due to disease progression ([3]; normal renal function): 20%
patients who died during the study ([3]; total, none considered related to carfilzomib treatment): Five
half-life ([4]; IV administration at doses from 15 to 56 mg/m^2, patients): ≤ 60 min
dose excreted via urinary metabolites ([4]; within 24 h): approximately 25%
urinary and fecal excretion of the parent compound ([4]; within 24 h): 0.3 % of the total dose
ORR ([5]; phase I trial): 50%
ORR ([5]; phase II trial): 55%
